In patent publication US10844102B2, “Peptides, compositions, and methods for stimulating subcutaneous adipogenesis” (The Regents of the University of California, priority 2014, dated 2020):

What was measured:
[1] = tested on: mammary fat pads of aged female rats; assay: In vivo adipogenesis in mammary fat pads of aged female rats (microCT); design: species or system rat; conditions: eight-month-old female rats, 100 μg peptide in 100 μl collagen gel, 7 days, versus collagen only
Description: Peptides were also tested for their ability to stimulate adipogenesis in mammary fat pads of aged (8 month old) female rats in vivo. Mammary fat pads are rich in adipocyte progenitor cells.
Eight-month-old female Sprague Dawley rats (retired breeders) were injected with 100 μl collagen gel (Vitrogen) containing 100 μg peptide into the fourth right mammary fat pad, as depicted in FIG. 10. […] The collagen and peptides were injected at the top of the ROI nearest the nipple. The collagen and peptide diffuse into the fat pad following injection and active peptides target RHAMM-positive progenitor cells present in the fat pad. Collagen alone was injected into the fourth left mammary fat pad as a negative control.
Following injection of the collagen and peptide or collagen alone, animals were maintained on rat chow and water for 7 days and then euthanized. Micro-computed tomography (microCT) imaging of the […] was performed on animals using a Locus Ultra scanner (GE Healthcare, London, ON, Canada). The animals were imaged ex vivo with an X-ray tube voltage of 80 kV and a tube current of 55 mA. Nine hundred projections of data were acquired at an angular increment of 0.4 degrees around the rat in an exposure time of 16 ms. The data were then reconstructed into a 3D volume image with a voxel size of 154 μm. The subcutaneous mammary fat measured in 10×5×3 mm rectangular area (the region of interest (ROI)) below the nipple, avoiding measurement of underlying visceral fat (see the region labeled “fat pad” in FIG. 11). The amount of fat in the ROI was calculated as mass (mg) per ROI.

[2] = tested on: rat mesenchymal stem cells; assay: Assay 1: adipogenesis, Oil Red O staining (transdifferentiation of fibroblast lineages into adipocytes); type: cell-based; conditions: for adipogenic activity in Assay 1: Assay 1, Oil Red O, concentration not given; for adipogenesis quantified by Oil Red O staining, fold change relative to the negative control: three weeks
Description: Reagents: (1) 3-isobutyl-1-methylxanthine (IBMX) solution: 0.5M in DMSO; (2) Insulin Solution: 10 mg/mL recombinant human insulin; (3) Dexamethasone Solution in 10 mM in ethanol; (4) Oil Red O (0.36% in 60% isopropanol).
Adipogenesis Initiation Media: mesenchymal stem cell expansion media/0.5 mM IBMX/1 μM dexamethasone. Mesenchymal stem cell expansion media is commercially available from Millipore. The IBMX Solution was diluted 1:1000 and the Dexamethasone Solution was diluted 1:10,000 in expansion media containing antibiotics and antimycotics. The prepared media was stored at 4° C.
Adipogenesis Progression Media for positive control: mesenchymal stem cell expansion media/10 μg/mL insulin. The Insulin Solution was diluted 1:1000 in the expansion media and stored at 4° C.
Experimental Adipogenesis Progression Media: mesenchymal stem cell expansion media/1-100 μg/mL RHAMM antagonist peptides.
Adipogenesis Maintenance Media: mesenchymal stem cell expansion media containing antibiotics and antimycotics.
Negative Control Media: Dulbecco's Modified Eagle's Medium (DMEM)/10% normal calf serum.
Pre-adipocyte stem cells including bone marrow mesenchymal stem cells and fibroblasts were propagated using standard tissue culture methods. Cells were trypsinized to remove the cells from the substratum. The trypsin was neutralized and cells were counted using a hemocytometer. Cells were resuspended at 20,000 cells/mL in expansion media. 1 mL of cell suspension was plated per well of 48-well plate, with several wells left empty for blank well (blank control) staining.
Cells were incubated until they reached confluency. When cells were fully confluent, the expansion media was replaced with 0.5 mL of Adipogenesis Initiation Media. For negative controls (no insulin, no peptides), expansion media only was used at this step and for subsequent media changes. For all media changes, media was replaced as gently as possible to avoid disturbing the monolayer.
Cells were incubated in Adipogenesis Initiation Media for 72 hours at 37° C., 5% CO2. 0.5 mL media was then removed from each well, and replaced with 0.5 mL of either positive control or experimental Adipogenesis Progression Media per well. Cells were again incubated for 96 hours at 37° C., 5% CO2, after which time media was replaced every 48 hours with Adipogenesis Maintenance Media (0.5 mL of media was removed from each well and replaced with 0.5 mL Adipogenesis Maintenance Media per well). Media added to empty wells served as blank controls for blank well background staining. Cells were incubated in Adipogenesis Maintenance Medium for at least 96 hours at 37° C., 5% CO2 after which time media was replaced with Adipogenesis Maintenance Medium. Lipid droplets had appeared by the time Adipogenesis Maintenance Medium was initially added and continued to accumulate and increase in size for 7-14 days. Experiments were terminated between seven and fourteen days after the initial addition of Adipogenesis Maintenance Medium.
For quantification of Oil Red O staining, media was removed and cells were washed twice with PBS, using care to gently add the PBS. Cells were then fixed in 4% paraformaldehyde (0.5 mL/well) and incubated for 30 minutes. The fixation solution was then removed and wells were washed two times with 1 mL of phosphate buffered saline (PBS) and once with 1 mL Milli-Q water. 0.25 mL Oil Red O solution was added per well of 48-well plate, including to the wells lacking cells, but containing media. Cells were incubated for 15 minutes at room temperature. The staining solution was then removed and wells were washed two times with 1 mL of Milli-Q water and once with washing solution (63% isopropanol in water).
Adipogenesis was quantified using a spectrophotometer. 0.25 mL Dye Extraction Solution (isopropyl alcohol) was added per well, and the plate was set on an orbital shaker or platform rocker for 30 minutes. […]

Substance	adipogenesis in vivo in mammary fat pads [1]	specific activity among the 9-mer, 7-mer and 6-mer fragments ([2]; Assay 1)	adipogenic activity in Assay 1 [2]	adipogenesis in vivo in mammary fat pads ([1]; listed as KTRASHHV)	adipogenesis quantified by Oil Red O staining, fold change relative to the negative control ([2]; Assay 1, peptide 5 μg/ml)	adipogenesis quantified by Oil Red O staining, fold change relative to the negative control ([2]; Assay 1, peptide 50 μg/ml)
KSEVSK (listed as Homo sapiens) [reference compound]	mammary fat pad enlargement	highest specific activity	exhibit adipogenic activity			
KLKDENSQLR (listed as Erinaceus europaeus)	not subsequently shown to be adipogenic		promising results			
KTRAHHV (listed as Paenibacillus polymyxa)	induce adipogenesis in vivo		ablated adipogenic activity	able to induce adipogenesis in vivo		
KLKDENSQLK (listed as Homo sapiens)	exhibited activity		exhibited activity		significant increase in adipogenesis	significant increase in adipogenesis
